Our source for the water solubility values is patent publication US20100087658A1, “METHODS AND INTERMEDIATES FOR SYNTHESIS OF SELECTIVE DPP-IV INHIBITORS” (Phenomix Corporation, priority 1996, published 2010).

The conditions of this data set: crystalline form as isolated.

Consider `O=C([O-])CN(C(=O)OCc1ccccc1)C1CCN(C(=O)OCc2ccccc2)C1.[Na+]` (stereo not shown) [II-Cbz-Na, sodium salt of (1-carbobenzyloxypyrrolidin-3-yl)-N-carbobenzyloxyglycine], for which the water solubility result was “highly water-soluble”.
